Measured values as given in ChEMBL document CHEMBL1201862, “PubChem BioAssay data set” (2004).
Active and inactive are the calls of the source.

Assays:
[1] = target: T1, Orexin/Hypocretin receptor type 1 (Homo sapiens, UniProt O43613); test: (§1) Fluorescence-based cell-based high throughput dose response assay for antagonists of the orexin 1 receptor (OX1R; HCRTR1). [Related pubchem assays (depositor defined):AID434989, AID435008, AID463079, AID485270, AID492963, AID492964, AID492965, AID493232, AID504717, AID504718]; assay type: functional
T1 sequence (O43613 whole entry): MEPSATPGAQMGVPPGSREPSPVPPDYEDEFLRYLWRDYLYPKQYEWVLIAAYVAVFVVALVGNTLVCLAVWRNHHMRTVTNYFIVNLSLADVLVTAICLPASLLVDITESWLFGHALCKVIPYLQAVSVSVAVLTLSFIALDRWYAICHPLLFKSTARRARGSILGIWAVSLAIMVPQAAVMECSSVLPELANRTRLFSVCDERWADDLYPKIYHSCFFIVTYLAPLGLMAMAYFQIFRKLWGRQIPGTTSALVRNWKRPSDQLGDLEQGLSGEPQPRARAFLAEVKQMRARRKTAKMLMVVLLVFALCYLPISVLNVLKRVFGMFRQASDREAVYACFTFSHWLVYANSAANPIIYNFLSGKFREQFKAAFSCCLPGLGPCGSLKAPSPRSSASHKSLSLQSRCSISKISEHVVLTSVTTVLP

[2] = target: T1, Orexin/Hypocretin receptor type 1; test: as §1, with “Homogeneous Time Resolved Fluorescence (HTRF)-based” for “Fluorescence-based”; assay type: functional
[3] = target: Mitogen-activated protein kinase 10 (Homo sapiens, UniProt P53779); test: Dose response biochemical screening assay for inhibitors of c-Jun N-Terminal Kinase 3 (JNK3). [Related pubchem assays: 746 ]
Chain of Mitogen-activated protein kinase 10 (P53779 whole entry): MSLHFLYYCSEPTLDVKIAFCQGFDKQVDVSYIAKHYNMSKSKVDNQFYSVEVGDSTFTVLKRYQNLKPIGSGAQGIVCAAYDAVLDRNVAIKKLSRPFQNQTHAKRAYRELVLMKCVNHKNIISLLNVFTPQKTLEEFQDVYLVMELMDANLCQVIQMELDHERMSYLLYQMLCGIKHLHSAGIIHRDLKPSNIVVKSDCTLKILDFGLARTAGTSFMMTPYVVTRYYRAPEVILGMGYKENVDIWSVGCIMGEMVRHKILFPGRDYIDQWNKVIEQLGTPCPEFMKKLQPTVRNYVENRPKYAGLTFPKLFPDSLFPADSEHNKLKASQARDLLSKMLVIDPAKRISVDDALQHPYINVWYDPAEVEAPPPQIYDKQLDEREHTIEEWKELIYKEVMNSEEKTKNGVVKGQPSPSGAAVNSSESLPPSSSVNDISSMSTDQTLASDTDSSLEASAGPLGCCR

[4] = system: CHO-K1; test: (§2) Counterscreen for antagonists of the orexin 1 receptor (OX1R; HCRTR1): Homogeneous time resolved fluorescence (HTRF)-based cell-based dose response assay to identify antagonists of the parental CHO-K1 cell line. [Related pubchem assays (depositor defined):AID434989, AID435008, AID463079, AID485270, AID492963, AID492964, AID492965, AID493232, AID504699, AID504701]; assay type: functional; conditions: Cricetulus griseus
[5] = target: T2, Orexin receptor type 2 (Homo sapiens, UniProt O43614); test: Counterscreen assay for antagonists of the orexin 1 receptor (OX1R; HCRTR1): Fluorescence-based cell-based dose response assay for antagonists of the orexin 2 receptor (OX2R; HCRTR2), run by assay provider.; assay type: functional
T2 sequence (O43614 whole entry): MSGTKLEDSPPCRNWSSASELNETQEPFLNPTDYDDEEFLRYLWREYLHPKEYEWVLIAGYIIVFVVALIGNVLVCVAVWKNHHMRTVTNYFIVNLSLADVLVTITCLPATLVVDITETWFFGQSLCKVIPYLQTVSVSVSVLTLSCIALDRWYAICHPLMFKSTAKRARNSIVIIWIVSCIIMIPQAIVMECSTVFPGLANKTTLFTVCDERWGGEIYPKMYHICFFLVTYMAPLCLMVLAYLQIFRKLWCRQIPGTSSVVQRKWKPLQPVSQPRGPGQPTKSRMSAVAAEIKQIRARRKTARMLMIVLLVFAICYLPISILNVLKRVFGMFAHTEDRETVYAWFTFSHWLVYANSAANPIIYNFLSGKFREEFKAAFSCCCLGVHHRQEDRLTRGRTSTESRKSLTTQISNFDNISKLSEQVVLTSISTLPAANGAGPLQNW

[6] = target: T2, Orexin receptor type 2; test: Counterscreen assay for antagonists of the orexin 1 receptor (OX1R; HCRTR1): Homogeneous Time Resolved Fluorescence (HTRF)-based cell-based dose response assay for antagonists of the orexin 2 receptor (OX2R; HCRTR2), run by assay provider.; assay type: functional
[7] = as §2, with “Fluorescence-based” for “Homogeneous time resolved fluorescence (HTRF)-based”, “cell-based high throughput” for “cell-based”, “CHO” for “CHO-K1”; assay type: functional
[8] = target: T3, Melanocortin receptor 4 (Homo sapiens, UniProt P32245); assay type: functional, cell-based;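 also: Cell-based assay with luminescence read-out, confirmatory dose-response testing for agonist activity of biased ligands at MC4R; human U2OS cells with tagged receptor and beta-arrestin; potency of agonists that increase receptor coupling to beta-arrestin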
T3 sequence (P32245 whole entry): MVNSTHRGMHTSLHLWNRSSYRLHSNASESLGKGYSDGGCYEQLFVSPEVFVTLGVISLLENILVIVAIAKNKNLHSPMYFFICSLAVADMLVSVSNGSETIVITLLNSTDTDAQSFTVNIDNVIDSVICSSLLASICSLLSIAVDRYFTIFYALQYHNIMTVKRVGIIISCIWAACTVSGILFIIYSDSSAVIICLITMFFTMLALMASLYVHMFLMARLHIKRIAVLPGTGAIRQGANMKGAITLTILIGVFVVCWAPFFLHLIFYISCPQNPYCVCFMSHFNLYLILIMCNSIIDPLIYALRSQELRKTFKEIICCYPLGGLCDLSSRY

[9] = target: T4, Interleukin-8 (Homo sapiens, UniProt P10145); test: Dose Response confirmation of uHTS small molecule hits for cystic fibrosis induced NFkb Inhibitors in a TNFa-induced IL8 counterscreen.; assay type: functional; conditions: read-out: IC50_Mean
T4 sequence (P10145 whole entry): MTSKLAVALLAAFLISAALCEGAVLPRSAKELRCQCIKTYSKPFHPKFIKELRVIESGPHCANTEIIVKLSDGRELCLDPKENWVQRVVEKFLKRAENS

[10] = target: T4, Interleukin-8; test: Dose Response confirmation of uHTS small molecule hits for cystic fibrosis induced NFkb Inhibitors in a PAF-induced IL8 counterscreen.; assay type: functional; conditions: read-out: IC50_Mean
[11] = system: HEK293; test: inhibitors of LMP1-driven NF-kB reporter, dose response, cell-based, HEK293, luciferase, cherry-pick (AID 588343); assay type: functional; conditions: Homo sapiens
[12] = nonselective inhibitors of cellular cAMP signaling, dose response, counter-screen for MC4R biased antagonist project, cell-based, TR-FRET cAMP detection (AID 602305); assay type: functional;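 also: U2OS cells stimulated with forskolin near its EC80 as the cAMP inducer; potency is for inhibition of forskolin-stimulated cAMP signaling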
[13] = target: T3, Melanocortin receptor 4; test: MC4R antagonist potency on cAMP, dose response, cell-based, TR-FRET, biased antagonists (AID 602298); assay type: functional;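 also: antagonist potency against agonist-stimulated cAMP production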
[14] = inhibitors of HIV Env-driven cell fusion, dose response, cherry-pick (AID 652057); assay type: functional, cell-based
[15] = inhibitors of clade B AD8 Env fusion, dose response, cell-based, cherry-pick (AID 652062); assay type: functional;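 also: luciferase signal from cell-cell fusion driven by HIV-1 clade B AD8 Env; potency is for inhibitors of fusion seen as a drop in luminescence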

SMILES | IC50 [1] | IC50 [2] | IC50 [4] | IC50 [5] | IC50 [6] | IC50 [7] | further results
CCn1c(C)cs/c1=N/C(=O)c1ccccc1O | 7.37 µM (active) | 2.69 µM (active) | > 66.3 µM (inactive) | > 88.8 µM (inactive) | > 50 µM (inactive) | > 49.8 µM (inactive) | IC50 [3]: 40.7 µM (not active)
Cc1ccccc1-c1nc(-c2ccc(NC(=O)c3ccc4c(c3)OCO4)cc2)no1 |  |  |  |  |  |  | EC50 [8]: > 89.1 µM (inactive)
CCn1c(=O)c2c(cnn2C)c2ccccc21 |  |  |  |  |  |  | IC50 [9]: > 79 µM (inactive); IC50 [10]: 46.2 µM (inactive); AC50 [11]: 35.3 µM (active)
COc1cccc(OP(=O)(Nc2ccccc2)Oc2cccc(OC)c2)c1 | 14.5 µM (inactive) | 9.26 µM (active) | > 66.2 µM (inactive) | > 88.8 µM (inactive) | > 50 µM (inactive) | > 49.7 µM (inactive) | 
O=C1OCCC1Sc1nc2cc(Cl)ccc2n1Cc1ccccc1 (configuration not stated) |  |  |  |  |  |  | IC50 [12]: > 64.6 µM (inactive); IC50 [13]: > 64.6 µM (inactive)
O=S(=O)(NC1CC1)c1ccc(S(=O)(=O)N2CCCc3ccccc32)cc1 | 6.07 µM (active) | 6.71 µM (active) | > 66.2 µM (inactive) | > 88.8 µM (inactive) | 6.62 µM (active) | 18.2 µM (inactive) | AC50 [14]: 28.3 µM (active); AC50 [15]: 16.9 µM (active)
